Measurements as given in ChEMBL document CHEMBL5316291 (J Med Chem, 2023).
Activity calls are given as the source filed them. The calls are words filed in the database; no cut-off is given here.

Assays:
CT26 [1] = assay: Antitumor activity against mouse CT26 cells implanted in BALB/c mouse assessed as increase in infiltration of CD3 positive CD4 positive T lymphocytes in tumors at 50 mg/kg, po measured after 14 days by flow cytometry (reference value: 7.95%); type: functional; settings: time 14 day
[2] = Toxicity in BALB/c mouse implanted with mouse CT26 cells assessed as liver damage at 100 mg/kg, po measured for 14 days by hematoxylin and eosin staining based fluorescence microscopic analysis; type: organism-based; settings: in vivo, 336 h, time 14 day
[3] = target: T1, Protein mono-ADP-ribosyltransferase PARP12 (Homo sapiens, UniProt Q9H0J9); assay: Inhibition of human recombinant N-terminal GST-tagged PARP12 (500 to 701 end residues) expressed in baculovirus infected Sf9 cells expression system incubated for 1 hr by ELISA assay
T1 sequence (Q9H0J9 whole entry): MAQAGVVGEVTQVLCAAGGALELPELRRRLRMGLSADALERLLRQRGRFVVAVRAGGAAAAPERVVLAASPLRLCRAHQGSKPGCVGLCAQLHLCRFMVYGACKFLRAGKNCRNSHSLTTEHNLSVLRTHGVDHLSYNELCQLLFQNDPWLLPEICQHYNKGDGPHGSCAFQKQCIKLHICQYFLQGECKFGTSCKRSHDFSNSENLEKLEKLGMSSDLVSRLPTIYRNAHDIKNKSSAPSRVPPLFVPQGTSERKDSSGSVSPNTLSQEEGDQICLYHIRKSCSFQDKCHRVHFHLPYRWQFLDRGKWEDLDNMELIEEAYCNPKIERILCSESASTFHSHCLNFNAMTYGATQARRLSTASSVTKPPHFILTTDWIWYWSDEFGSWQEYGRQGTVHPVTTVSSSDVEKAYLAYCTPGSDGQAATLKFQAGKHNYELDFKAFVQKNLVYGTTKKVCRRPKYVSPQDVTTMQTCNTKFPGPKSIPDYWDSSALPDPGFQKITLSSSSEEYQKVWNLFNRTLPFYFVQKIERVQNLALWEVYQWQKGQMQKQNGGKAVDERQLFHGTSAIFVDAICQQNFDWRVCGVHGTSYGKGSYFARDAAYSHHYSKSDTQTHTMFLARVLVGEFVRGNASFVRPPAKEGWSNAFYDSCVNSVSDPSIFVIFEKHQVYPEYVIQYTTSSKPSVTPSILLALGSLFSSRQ

CT26 [4] = assay: Antitumor activity against mouse CT26 cells implanted in po dosed BALB/c mouse assessed as increase in IFN-beta levels at 100 mg/kg measured after 14 days by RT-qPCR analysis; type: functional, organism-based; settings: time 14.0 day
[5] = target: T2, Protein mono-ADP-ribosyltransferase TIPARP (Mus musculus) (UniProt Q8C1B2); assay: Inhibition of PARP7 in mouse CT26 cells assessed as increase in […] levels at 49 to 4000 nmol/L measured after 48 hrs by RT-qPCR analysis; type: cell-based; settings: dose lower […], dose upper 4000.0 nmol/L
T2 sequence (whole entry): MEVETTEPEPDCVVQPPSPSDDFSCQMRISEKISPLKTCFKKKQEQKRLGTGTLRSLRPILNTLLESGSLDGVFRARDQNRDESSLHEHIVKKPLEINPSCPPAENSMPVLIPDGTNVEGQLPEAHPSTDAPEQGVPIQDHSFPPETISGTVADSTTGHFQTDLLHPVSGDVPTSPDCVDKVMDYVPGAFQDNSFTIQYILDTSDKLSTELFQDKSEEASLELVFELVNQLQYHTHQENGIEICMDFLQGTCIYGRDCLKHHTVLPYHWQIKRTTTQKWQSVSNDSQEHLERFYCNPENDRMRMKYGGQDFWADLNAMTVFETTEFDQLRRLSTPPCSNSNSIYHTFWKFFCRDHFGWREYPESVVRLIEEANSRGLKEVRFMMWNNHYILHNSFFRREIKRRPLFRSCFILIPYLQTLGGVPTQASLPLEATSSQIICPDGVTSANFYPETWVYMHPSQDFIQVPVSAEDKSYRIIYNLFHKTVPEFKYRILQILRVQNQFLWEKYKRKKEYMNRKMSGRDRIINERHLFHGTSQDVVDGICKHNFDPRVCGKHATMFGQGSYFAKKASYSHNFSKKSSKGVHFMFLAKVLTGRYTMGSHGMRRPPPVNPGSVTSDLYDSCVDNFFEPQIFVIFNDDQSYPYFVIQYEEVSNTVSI

CT26 [6] = assay: Antitumor activity against mouse CT26 cells implanted in po dosed BALB/c mouse assessed as increase in PARP7 levels at 50 to 100 mg/kg measured after 14 days by RT-qPCR analysis; type: functional, organism-based; settings: dose 50-100 mg/kg, time 14.0 day
[7] = Apparent volume of distribution in ICR mouse at 1 mg/kg, iv measured upto 24 hrs by LC-MS/MS analysis; type: ADME, organism-based; settings: in vivo, read-out: Vz
[8] = target: T3, Protein mono-ADP-ribosyltransferase TIPARP (Homo sapiens) (UniProt Q7Z3E1); assay: Inhibition of human recombinant N-terminal FLAG tagged PARP7 (400 to 657 end residues) at 100 nM incubated for 1 hr by ELISA assay relative to control
T3 sequence (whole entry): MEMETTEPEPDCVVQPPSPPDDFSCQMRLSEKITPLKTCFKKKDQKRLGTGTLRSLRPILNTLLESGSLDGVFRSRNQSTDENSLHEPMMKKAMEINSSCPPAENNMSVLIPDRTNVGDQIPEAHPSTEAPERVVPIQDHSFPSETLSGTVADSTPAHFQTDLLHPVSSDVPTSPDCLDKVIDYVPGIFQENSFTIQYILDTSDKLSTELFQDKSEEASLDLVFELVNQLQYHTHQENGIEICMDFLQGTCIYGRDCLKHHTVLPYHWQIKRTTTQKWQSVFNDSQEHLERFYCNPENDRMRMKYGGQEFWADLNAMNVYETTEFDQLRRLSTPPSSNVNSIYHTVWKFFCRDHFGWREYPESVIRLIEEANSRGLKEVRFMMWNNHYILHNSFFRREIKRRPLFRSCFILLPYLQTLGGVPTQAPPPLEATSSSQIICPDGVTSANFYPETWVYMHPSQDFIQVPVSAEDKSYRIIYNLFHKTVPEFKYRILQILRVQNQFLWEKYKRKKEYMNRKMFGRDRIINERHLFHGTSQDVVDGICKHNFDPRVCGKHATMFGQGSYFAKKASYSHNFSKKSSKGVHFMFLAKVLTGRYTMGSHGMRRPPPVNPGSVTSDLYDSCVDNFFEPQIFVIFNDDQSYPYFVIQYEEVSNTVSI

[9] = target: T4, Protein mono-ADP-ribosyltransferase TIPARP (Homo sapiens, UniProt Q7Z3E1); assay: Inhibition of human recombinant N-terminal FLAG tagged PARP7 (400 to 657 end residues) incubated for 1 hr by ELISA assay
T4 sequence (Q7Z3E1 whole entry): T3 sequence (whole entry)

[10] = Half life in ICR mouse at 1 mg/kg, iv measured upto 24 hrs by LC-MS/MS analysis; type: ADME, organism-based; settings: in vivo
[11] = target: Voltage-gated inwardly rectifying potassium channel KCNH2 (Homo sapiens, UniProt Q12809); assay: Inhibition of hERG; type: toxicity
[12] = Toxicity in BALB/c mouse implanted with mouse CT26 cells assessed as lung damage at 100 mg/kg, po measured for 14 days by hematoxylin and eosin staining based fluorescence microscopic analysis; type: organism-based; settings: in vivo, 336 h, time 14 day

Chain of Voltage-gated inwardly rectifying potassium channel KCNH2 (Q12809 whole entry): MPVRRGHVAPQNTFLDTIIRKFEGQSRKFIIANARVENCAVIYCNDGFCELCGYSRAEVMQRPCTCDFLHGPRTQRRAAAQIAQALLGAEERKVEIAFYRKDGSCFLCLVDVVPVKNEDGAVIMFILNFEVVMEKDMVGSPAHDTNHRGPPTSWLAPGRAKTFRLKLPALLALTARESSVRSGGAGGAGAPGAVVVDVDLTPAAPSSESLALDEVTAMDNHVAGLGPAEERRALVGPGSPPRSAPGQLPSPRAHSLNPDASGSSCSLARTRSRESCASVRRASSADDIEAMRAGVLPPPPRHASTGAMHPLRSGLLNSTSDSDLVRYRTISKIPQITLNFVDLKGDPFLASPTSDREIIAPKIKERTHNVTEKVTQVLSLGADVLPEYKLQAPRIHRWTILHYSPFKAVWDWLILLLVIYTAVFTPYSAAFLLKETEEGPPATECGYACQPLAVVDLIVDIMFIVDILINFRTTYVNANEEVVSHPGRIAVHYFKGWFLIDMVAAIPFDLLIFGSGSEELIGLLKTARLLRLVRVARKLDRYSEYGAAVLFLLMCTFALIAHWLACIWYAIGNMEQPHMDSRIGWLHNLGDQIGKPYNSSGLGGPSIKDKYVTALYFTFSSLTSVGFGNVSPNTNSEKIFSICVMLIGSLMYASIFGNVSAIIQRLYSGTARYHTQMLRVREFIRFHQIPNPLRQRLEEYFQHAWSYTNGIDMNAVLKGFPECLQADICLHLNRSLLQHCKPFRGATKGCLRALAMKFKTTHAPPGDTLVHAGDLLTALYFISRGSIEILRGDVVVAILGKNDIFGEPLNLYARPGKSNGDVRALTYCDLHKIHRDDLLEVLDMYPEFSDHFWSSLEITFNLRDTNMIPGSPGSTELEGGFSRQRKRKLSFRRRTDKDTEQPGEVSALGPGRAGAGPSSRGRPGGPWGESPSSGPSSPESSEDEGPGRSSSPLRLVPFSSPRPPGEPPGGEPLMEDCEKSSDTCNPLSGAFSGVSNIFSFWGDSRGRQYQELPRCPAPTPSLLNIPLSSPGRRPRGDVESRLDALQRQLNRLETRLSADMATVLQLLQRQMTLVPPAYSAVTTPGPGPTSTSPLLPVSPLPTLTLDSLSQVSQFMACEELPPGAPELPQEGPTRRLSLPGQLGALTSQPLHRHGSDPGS

IC50 [3]: 453 nM
inhibition [5]: Active
Vd [7]: 3.66 L/kg
inhibition [8]: 70.5%
IC50 [9]: 7.6 nM
t1/2 [10]: 1.44 h
SMILES: C[C@@H](CN1CC(C(=O)N2CCN(c3ncc(C(F)(F)F)cn3)CC2)C1)Nc1cn[nH]c(=O)c1C(F)(F)F
Activity (CT26 [1]): 63.1%
Activity [2]: Non-Toxic
Activity (CT26 [4]): Active
Activity (CT26 [6]): inactive
inhibition (INH) [11]: Not Active
Activity [12]: Non-Toxic
